Data reported in patent US12565501B2, “Muscarinic acetylcholine M1 receptor antagonists” (Contineum Therapeutics, Inc., priority 2019, dated 2026).

These molecules were tested against T1, human M1 receptor (Homo sapiens, UniProt P11229) (assay: In vitro functional assay of muscarinic acetylcholine receptor activity (aequorin calcium flux, reversal of EC80 acetylcholine response)). Settings: CHO-K1 cells stably expressing human M1 receptor with aequorin; acetylcholine at EC80; calcium flux (luminescence); read-out: M1 IC50.
T1 sequence (P11229 1-460): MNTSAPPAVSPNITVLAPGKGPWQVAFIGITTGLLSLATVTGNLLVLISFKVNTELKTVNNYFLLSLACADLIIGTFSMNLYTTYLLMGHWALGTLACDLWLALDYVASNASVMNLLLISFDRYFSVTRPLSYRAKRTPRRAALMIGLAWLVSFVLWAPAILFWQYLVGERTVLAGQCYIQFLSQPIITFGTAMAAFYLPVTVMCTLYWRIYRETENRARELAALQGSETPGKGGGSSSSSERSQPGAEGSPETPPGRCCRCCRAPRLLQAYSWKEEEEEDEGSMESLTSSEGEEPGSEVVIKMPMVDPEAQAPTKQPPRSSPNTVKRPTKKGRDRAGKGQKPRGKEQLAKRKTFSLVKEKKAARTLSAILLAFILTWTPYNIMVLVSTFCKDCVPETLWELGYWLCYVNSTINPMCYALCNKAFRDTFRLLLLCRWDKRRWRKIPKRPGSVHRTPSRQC
Assay type: cell-based
Procedure, shortened: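 CHO-K1 cells expressing human M1 and aequorin, loaded with 5 μM coelenterazine for 4 h, preincubated with compound 30 min at room temperature, then challenged with EC80 acetylcholine.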

Structure (SMILES) | IC50 [µM]
N#Cc1ccc(N2C3CCC2CN(C(=O)COC2(c4cccc(Br)c4F)CC2)C3)nc1 [Example 219, 6-(3-(2-(1-(3-bromo-2-fluorophenyl)cyclopropoxy)acetyl)-3,8-diazabicyclo[3.2.1]octan-8-yl)nicotinonitrile] | 0.01 to 0.1
N#Cc1ccc(N2C3CCC2CN(C(=O)COC2(c4cccc(F)c4)CCC2)C3)nc1 [Example 235, 6-(3-(2-(1-(3-fluorophenyl)cyclobutoxy)acetyl)-3,8-diazabicyclo[3.2.1]octan-8-yl)nicotinonitrile] | 0.01 to 0.1
COc1cc(C(F)(F)CCCC(=O)N2CC3CCC(C2)N3c2ccc(C#N)cn2)ccn1 [Example 150, 6-(3-(5,5-difluoro-5-(2-methoxypyridin-4-yl)pentanoyl)-3,8-diazabicyclo[3.2.1]octan-8-yl)nicotinonitrile] | 0.1 to 1
CC(C)(O)C(NCCC(=O)N1C[C@H]2CC[C@@H](C1)N2c1ccc(C#N)cn1)c1ccccc1 (mixture of isomers) [Example 49, 6-(3-(3-((2-hydroxy-2-methyl-1-phenylpropyl)amino)propanoyl)-3,8-diazabicyclo[3.2.1]octan-8-yl)nicotinonitrile] | 1 to 10
N#Cc1ccc(N2C3COCC2CN(C(=O)COC2(c4ccc(F)c(F)c4)CC2)C3)nc1 [Example 279, 6-(7-(2-(1-(3,4-difluorophenyl)cyclopropoxy)acetyl)-3-oxa-7,9-diazabicyclo[3.3.1]nonan-9-yl)nicotinonitrile] | 1 to 10
COc1ccncc1C(F)(F)/C=C/C(=O)N1C[C@H]2CC[C@@H](C1)N2c1ccc(C#N)cn1 [Example 143, 6-(3-((E)-4,4-difluoro-4-(4-methoxypyridin-3-yl)but-2-enoyl)-3,8-diazabicyclo[3.2.1]octan-8-yl)nicotinonitrile] | < 0.01
N#Cc1ccc(N2C3CCC2CN(C(=O)COC2(c4cc(F)ccc4F)CC2)C3)nc1 [Example 213, 6-(3-(2-(1-(2,5-difluorophenyl)cyclopropoxy)acetyl)-3,8-diazabicyclo[3.2.1]octan-8-yl)nicotinonitrile] | 0.01 to 0.1
N#Cc1ccc(N2C3CCC2CN(C(=O)COC2(c4cccnc4)CCC2)C3)nc1 [Example 245, 6-(3-(2-(1-(pyridin-3-yl)cyclobutoxy)acetyl)-3,8-diazabicyclo[3.2.1]octan-8-yl)nicotinonitrile] | 0.1 to 1
CC(C)(OCC(=O)N1CC2CCC(C1)N2c1ccc(C#N)cn1)c1cccc2nccn12 (racemic) [Example 204, 6-(3-(2-((2-(imidazo[1,2-a]pyridin-5-yl)propan-2-yl)oxy)acetyl)-3,8-diazabicyclo[3.2.1]octan-8-yl)nicotinonitrile] | 0.1 to 1
COc1ccncc1C1(OCC(=O)N2CC3CCC(C2)N3c2ccc(C#N)cn2)CCC1 [Example 258, 6-(3-(2-(1-(4-methoxypyridin-3-yl)cyclobutoxy)acetyl)-3,8-diazabicyclo[3.2.1]octan-8-yl)nicotinonitrile] | < 0.01
COc1cc(C2(NCC(=O)N3CC4CCC(C3)N4c3ccc(C#N)cn3)CC2)c(F)cn1 [Example 74, 6-(3-((1-(5-fluoro-2-methoxypyridin-4-yl)cyclopropyl)glycyl)-3,8-diazabicyclo[3.2.1]octan-8-yl)nicotinonitrile] | 0.01 to 0.1
COc1ccc(C2(OCC(=O)N3CC4CCC(C3)N4c3ccc(C#N)cn3)CC2)cc1OC [Example 225, 6-(3-(2-(1-(3,4-dimethoxyphenyl)cyclopropoxy)acetyl)-3,8-diazabicyclo[3.2.1]octan-8-yl)nicotinonitrile] | 0.1 to 1
CC(C)(NCCC(=O)N1C[C@H]2CC[C@@H](C1)N2c1ccc(C#N)cn1)c1cccc2ncccc12 [Example 25, 6-(3-(3-((2-(quinolin-5-yl)propan-2-yl)amino)propanoyl)-3,8-diazabicyclo[3.2.1]octan-8-yl)nicotinonitrile] | < 0.01
N#Cc1ccc(N2[C@@H]3CC[C@H]2CN(C(=O)CCNC2(c4cncc(F)c4)CC2)C3)nc1 [Example 30, 6-(3-(3-((1-(5-fluoropyridin-3-yl)cyclopropyl)amino)propanoyl)-3,8-diazabicyclo[3.2.1]octan-8-yl)nicotinonitrile] | 0.1 to 1
N#Cc1ccc(N2[C@@H]3C[C@H]2CN(C(=O)CCNC2(c4ccc(F)c(F)c4)CC2)C3)nc1 [Example 40, 6-(3-(3-((1-(3,4-difluorophenyl)cyclopropyl)amino)propanoyl)-3,6-diazabicyclo[3.1.1]heptan-6-yl)nicotinonitrile] | 1 to 10
COc1cccc(C(CO)CCC(=O)N2CC3CCC(C2)N3c2ccc(C#N)cn2)c1 (racemic) [Example 317, 6-(3-(5-hydroxy-4-(3-methoxyphenyl)pentanoyl)-3,8-diazabicyclo[3.2.1]octan-8-yl)nicotinonitrile] | < 0.01

Structure (SMILES) | IC50 [µM]
COc1cc(C2(NCCC(=O)N3CC4CCC(C3)N4c3ccc(C#N)cn3)CC2)ccn1 [Example 36, 6-(3-(3-((1-(2-methoxypyridin-4-yl)cyclopropyl)amino)propanoyl)-3,8-diazabicyclo[3.2.1]octan-8-yl)nicotinonitrile] | 1 to 10
N#Cc1ccc(N2C3CCC2CN(C(=O)COC2(c4ccc(F)cc4C#N)CC2)C3)nc1 [Example 297, 6-(3-(2-(1-(2-cyano-4-fluorophenyl)cyclopropoxy)acetyl)-3,8-diazabicyclo[3.2.1]octan-8-yl)nicotinonitrile] | 0.01 to 0.1
COc1cccc(C2(NCCC(=O)N3CC4CCC(C3)N4c3ccc(C#N)cn3)CC2)c1 [Example 16, 6-(3-(3-((1-(3-methoxyphenyl)cyclopropyl)amino)propanoyl)-3,8-diazabicyclo[3.2.1]octan-8-yl)nicotinonitrile] | 0.01 to 0.1
N#Cc1ccc(N2C[C@H]3C[C@@H]2CN3C(=O)COC2(c3ccc(F)c(F)c3)CC2)nc1 [Example 285, 6-((1R,4R)-5-(2-(1-(3,4-difluorophenyl)cyclopropoxy)acetyl)-2,5-diazabicyclo[2.2.1]heptan-2-yl)nicotinonitrile] | > 1
N#Cc1ccc(N2C3CCC2CN(C(=O)CCOC2(c4ccc(F)c(F)c4)CCC2)C3)nc1 [Example 303, 6-(3-(3-(1-(3,4-difluorophenyl)cyclobutoxy)propanoyl)-3,8-diazabicyclo[3.2.1]octan-8-yl)nicotinonitrile] | < 0.01
COc1ccc(F)c([C@H](C)NCC(=O)N2CC3CCC(C2)N3c2ccc(C#N)cn2)c1 [Example 67, 6-(3-(((S)-1-(2-fluoro-5-methoxyphenyl)ethyl)glycyl)-3,8-diazabicyclo[3.2.1]octan-8-yl)nicotinonitrile] | < 0.01
C[C@H](OCCC(=O)N1CC2CCC(C1)N2c1ccc(C#N)cn1)c1ccccc1 [Example 305, 6-(3-(3-((S)-1-phenylethoxy)propanoyl)-3,8-diazabicyclo[3.2.1]octan-8-yl)nicotinonitrile] | 0.1 to 1
N#Cc1ccc(N2C[C@H]3CC[C@@H]2CN3C(=O)COC2(c3ccc(F)c(F)c3)CC2)nc1 [Example 286, 6-((1R,4R)-5-(2-(1-(3,4-difluorophenyl)cyclopropoxy)acetyl)-2,5-diazabicyclo[2.2.2]octan-2-yl)nicotinonitrile] | > 1
N#Cc1cc(N2[C@@H]3CC[C@H]2CN(C(=O)CCNC2(c4ccc(F)c(F)c4)CC2)C3)ccn1 [Example 43, 4-(3-(3-((1-(3,4-difluorophenyl)cyclopropyl)amino)propanoyl)-3,8-diazabicyclo[3.2.1]octan-8-yl)picolinonitrile] | 0.01 to 0.1
N#Cc1ccc(N2C3CCC2CN(C(=O)COC2(c4cccc(OC(F)(F)F)c4)CCC2)C3)nc1 [Example 238, 6-(3-(2-(1-(3-(trifluoromethoxy)phenyl)cyclobutoxy)acetyl)-3,8-diazabicyclo[3.2.1]octan-8-yl)nicotinonitrile] | 0.1 to 1
CC(OCC(=O)N1CC2CCC(C1)N2c1ccc(C#N)cn1)c1ccc(C(F)(F)F)nc1 (racemic) [Example 190, 6-(3-(2-(1-(6-(trifluoromethyl)pyridin-3-yl)ethoxy)acetyl)-3,8-diazabicyclo[3.2.1]octan-8-yl)nicotinonitrile] | > 1
CC(NCCC(=O)N1CC2CCC(C1)N2c1ccc(C#N)cn1)c1ccc(F)cc1 (stereo in doubt) [Example 7, 6-(3-(3-(((S)-1-(4-fluorophenyl)ethyl)amino)propanoyl)-3,8-diazabicyclo[3.2.1]octan-8-yl)nicotinonitrile] | 1 to 10
COc1ccncc1C(F)(F)CCC(=O)N1CC2CCC(C1)N2c1ccc(C#N)cn1 [Example 161, 6-(3-(4,4-difluoro-4-(4-methoxypyridin-3-yl)butanoyl)-3,8-diazabicyclo[3.2.1]octan-8-yl)nicotinonitrile] | < 0.01
N#Cc1ccc(N2C3COCC2CN(C(=O)CNC2(c4ccc(F)cc4F)CC2)C3)nc1 [Example 78, 6-(7-((1-(2,4-difluorophenyl)cyclopropyl)glycyl)-3-oxa-7,9-diazabicyclo[3.3.1]nonan-9-yl)nicotinonitrile] | 0.1 to 1
COc1cc(F)cc(C2(NCC(=O)N3CC4CCC(C3)N4c3ccc(C#N)cn3)CC2)c1 [Example 110, 6-(3-((1-(3-fluoro-5-methoxyphenyl)cyclopropyl)glycyl)-3,8-diazabicyclo[3.2.1]octan-8-yl)nicotinonitrile] | < 0.01
N#Cc1ccc(N2C3CCC2CN(C(=O)CCNC(c2ccc(F)c(F)c2)C(F)F)C3)nc1 (racemic) [Example 129, 6-(3-(3-((1-(3,4-difluorophenyl)-2,2-difluoroethyl)amino)propanoyl)-3,8-diazabicyclo[3.2.1]octan-8-yl)nicotinonitrile] | < 0.01
